Assay results from patent publication US20130252930A1 (BIOMARIN PHARMACEUTICAL INC., priority 2010, published 2013).
Where two headings read alike, the source gives them in different places. Blank lines part the entries; values can stand above or below the compound they belong to.

Key:
Format in all cases: biochemical
[1] = molecular target: T1, CYP17 (human testicular microsome) (Homo sapiens, UniProt P05093); assay: CYP17 enzymatic assay (IC50) (Biological Example 4); settings: human testicular microsome
T1 construct: using microsomal fraction from human testis (Celsis Cat #S00110) as the enzyme source; tissue Celsis S00110; host or cells: human testis microsomal fraction
T1 sequence (P05093 1-508): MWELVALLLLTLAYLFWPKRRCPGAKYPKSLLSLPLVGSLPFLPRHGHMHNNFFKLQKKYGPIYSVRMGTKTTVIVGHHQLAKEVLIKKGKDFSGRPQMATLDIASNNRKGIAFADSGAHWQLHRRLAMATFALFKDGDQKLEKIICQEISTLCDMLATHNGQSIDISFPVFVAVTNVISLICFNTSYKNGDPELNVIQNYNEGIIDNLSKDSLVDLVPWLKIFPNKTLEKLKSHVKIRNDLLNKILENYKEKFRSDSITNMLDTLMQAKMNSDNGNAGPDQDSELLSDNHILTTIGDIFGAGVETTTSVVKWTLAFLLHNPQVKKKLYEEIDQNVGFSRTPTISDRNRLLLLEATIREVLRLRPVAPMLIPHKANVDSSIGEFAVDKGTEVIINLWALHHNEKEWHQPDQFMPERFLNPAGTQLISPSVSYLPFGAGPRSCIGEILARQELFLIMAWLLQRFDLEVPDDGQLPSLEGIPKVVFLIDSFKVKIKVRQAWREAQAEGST

[2] = molecular target: T1, CYP17 (human testicular microsome); assay: CYP17 enzymatic assay (% inhibition at 1 nM) (Biological Example 12); settings: compound at 1 nM
[3] = molecular target: T1, CYP17 (human testicular microsome); assay: CYP17 enzymatic assay (% inhibition at 10 nM), version 1 (Biological Example 5); settings: 10 nM compound, DHEA by ELISA, read-out: Biological Example No. 5: CYP17 percent inhibition at 10 nM (version 1)
[4] = read-out: Biological Example No. 4: CYP17 enzymatic assay IC50
[5] = read-out: Biological Example No. 12: CYP17 enzymatic assay % inhibition at 1 nM
[6] = read-out: CYP17 enzymatic assay IC50 (Biological Example No. 4)
[7] = read-out: CYP17 enzymatic assay % inhibition at 1 nM (Biological Example No. 12)

SMILES: CC1=C2CC[C@@H]3[C@H](CC[C@]4(C)C(c5cccnc5)=CC[C@@H]34)[C@@]2(C)CCC1O (mixture of isomers) [Compound 302, (10R,13S)-4,10,13-trimethyl-17-(pyridin-3-yl)-2,3,6,7,8,9,10,11,12,13,14,15-dodecahydro-1H-cyclopenta[a]phenanthren-3-ol]
IC50 [1, 4]: < 11 nM
inhibition at 0.001 µM [2, 5]: 10 to 50%

inhibition at 0.01 µM [3]: 1 to 50%
SMILES: Cc1cncc(C2=CC[C@H]3[C@@H]4CCN5CCCCC[C@]5(C)[C@H]4CC[C@]23C)c1 [Compound 45, (11aR,13aS)-11a,13a-dimethyl-1-(5-methylpyridin-3-yl)-3a,3b,4,5,7,8,9,10,11,11a,11b,12,13,13a-tetradecahydro-3H-azepino[2,1-a]cyclopenta[f]isoquinoline]

inhibition at 0.01 µM [3]: 1 to 50%
SMILES: COc1cncc(C2=CC[C@H]3[C@@H]4CCN5CCCCC[C@]5(C)[C@H]4CC[C@]23C)c1 [Compound 47, (11aR,13aS)-1-(5-methoxypyridin-3-yl)-11a,13a-dimethyl-3a,3b,4,5,7,8,9,10,11,11a,11b,12,13,13a-tetradecahydro-3H-azepino[2,1-a]cyclopenta[f]isoquinoline]

SMILES: CCc1cncc(C2=CC[C@H]3[C@@H]4CC=C5CCCC[C@]5(C)[C@H]4CC[C@]23C)c1 [Compound 64, 3-((10R,13S)-10,13-dimethyl-2,3,4,7,8,9,10,11,12,13,14,15-dodecahydro-1H-cyclopenta[a]phenanthren-17-yl)-5-ethylpyridine]
inhibition at 0.01 µM [3]: 1 to 50%

SMILES: Cc1cncc(C2=CC[C@H]3[C@@H]4CC=C5CCCC[C@]5(C)[C@H]4CC[C@]23C)c1 [Compound 65, 3-((10R,13S)-10,13-dimethyl-2,3,4,7,8,9,10,11,12,13,14,15-dodecahydro-1H-cyclopenta[a]phenanthren-17-yl)-5-methylpyridme]
inhibition at 0.01 µM [3]: 50 to 80%

SMILES: COc1cncc(C2=CC[C@H]3[C@@H]4CC=C5CCCC[C@]5(C)[C@H]4CC[C@]23C)c1 [Compound 66, 3-((10R,13S)-10,13-dimethyl-2,3,4,7,8,9,10,11,12,13,14,15-dodecahydro-1H-cyclopenta[a]phenanthren-17-yl)-5-methoxypyridine]
inhibition at 0.01 µM [3]: 50 to 80%

inhibition at 0.01 µM [3]: 1 to 50%
SMILES: C[C@]12CCCCC[C@@H]1CC[C@@H]1[C@@H]2CC[C@]2(C)C(c3cccnc3)=CC[C@@H]12 [Compound 90, 3-((3aS,3bR,5aR,10aS,10bS,12aS)-10a,12a-dimethyl-3,3a,3b,4,5,5a,6,7,8,9,10,10a,10b,11,12,12a-hexadecahydrocyclohepta[a]cyclopenta[f]naphthalen-1-yl)pyridine]

inhibition at 0.01 µM [3]: 1 to 50%
SMILES: Cc1cncc(C2=CC[C@H]3[C@@H]4CC[C@H]5CCCCC[C@]5(C)[C@H]4CC[C@]23C)c1 [Compound 91, 3-((3aS,3bR,5aR,10aS,10bS,12aS)-10a,12a-dimethyl-3,3a,3b,4,5,5a,6,7,8,9,10,10a,10b,11,12,12a-hexadecahydrocyclohepta[a]cyclopenta[f]naphthalen-1-yl)-5-methylpyridine]

inhibition at 0.01 µM [3]: 50 to 80%
SMILES: COc1cncc(C2=CC[C@H]3[C@@H]4CC[C@H]5CCCCC[C@]5(C)[C@H]4CC[C@]23C)c1 [Compound 92, 3-((3aS,3bR,5aR,10aS,10bS,12aS)-10a,12a-dimethyl-3,3a,3b,4,5,5a,6,7,8,9,10,10a,10b,11,12,12a-hexadecahydrocyclohepta[a]cyclopenta[f]naphthalen-1-yl)-5-methoxypyridine]

inhibition at 0.01 µM [3]: 1 to 50%
SMILES: CCc1cncc(C2=CC[C@H]3[C@@H]4CC[C@H]5CCCCC[C@]5(C)[C@H]4CC[C@]23C)c1 [Compound 93, 3-((3aS,3bR,5aR,10aS,10bS,12aS)-10a,12a-dimethyl-3,3a,3b,4,5,5a,6,7,8,9,10,10a,10b,11,12,12a-hexadecahydrocyclohepta[a]cyclopenta[f]naphthalen-1-yl)-5-ethylpyridine]

inhibition at 0.01 µM [3]: 1 to 50%
SMILES: CCOc1cncc(C2=CC[C@H]3[C@@H]4CC[C@H]5CCCCC[C@]5(C)[C@H]4CC[C@]23C)c1 [Compound 94, 3-((3aS,3bR,5aR,10aS,10bS,12aS)-10a,12a-dimethyl-3,3a,3b,4,5,5a,6,7,8,9,10,10a,10b,11,12,12a-hexadecahydrocyclohepta[a]cyclopenta[f]naphthalen-1-yl)-5-ethoxypyridine]

inhibition at 0.01 µM [3]: 1 to 50%
SMILES: Cc1ccncc1C1=CC[C@H]2[C@@H]3CC[C@H]4CCCCC[C@]4(C)[C@H]3CC[C@]12C [Compound 95, 3-((3aS,3bR,5aR,10aS,10bS,12aS)-10a,12a-dimethyl-3,3a,3b,4,5,5a,6,7,8,9,10,10a,10b,11,12,12a-hexadecahydrocyclohepta[a]cyclopenta[f]naphthalen-1-yl)-4-methylpyridine]

SMILES: C[C@]12CC[C@@H](NC(=O)C3CCC3)CC1=CCC1C2CC[C@]2(C)C(c3cccnc3)=CCC12 (stereo partly drawn) [Compound 226, N-((3R,10R,13S)-10,13-dimethyl-17-(pyridin-3-yl)-2,3,4,7,8,9,10,11,12,13,14,15-dodecahydro-1H-cyclopenta[a]phenanthren-3-yl)cyclobutanecarboxamide]
IC50 [1, 6]: < 11 nM
inhibition at 0.001 µM [2, 7]: > 50%

SMILES: Cc1cncc(C2=CC[C@H]3[C@@H]4CC=C5C[C@H](NC(=O)C6CC6)CC[C@]5(C)[C@H]4CC[C@]23C)c1 [Compound 227, N-((3R,10R,13S)-10,13-dimethyl-17-(5-methylpyridin-3-yl)-2,3,4,7,8,9,10,11,12,13,14,15-dodecahydro-1H-cyclopenta[a]phenanthren-3-yl)cyclopropanecarboxamide]
IC50 [1, 6]: < 11 nM
inhibition at 0.001 µM [2, 7]: > 50%

SMILES: CC1=C2CCC3C4=CC=C(c5cccnc5)[C@@]4(C)CCC3[C@@]2(C)CCC1O (stereo partly drawn) [Compound 299, (10R,13S)-4,10,13-trimethyl-17-(pyridin-3-yl)-2,3,6,7,8,9,10,11,12,13-decahydro-1H-cyclopenta[a]phenanthren-3-ol]
IC50 [1, 6]: < 11 nM
inhibition at 0.001 µM [2, 7]: < 10%

SMILES: C[C@]12CC[C@H]3[C@@H](CC(F)C4(O)CC(=O)CC[C@]34C)[C@@H]1CC=C2c1cccnc1 (stereo partly drawn) [Compound 310e, (10R,13S)-6-fluoro-5-hydroxy-10,13-dimethyl-17-(pyridin-3-yl)-4,5,6,7,8,9,10,11,12,13,14,15-dodecahydro-1H-cyclopenta[a]phenanthren-3(2H)-one]
IC50 [1, 4]: < 11 nM
inhibition at 0.001 µM [2, 5]: > 50%

SMILES: C[C@]12CC[C@H]3[C@@H](CC(F)C4(O)CC(=O)CC[C@]34C)[C@@H]1CC=C2c1cncc(F)c1 (stereo partly drawn) [Compound 324, (10R,13S)-6-fluoro-17-(5-fluoropyridin-3-yl)-5-hydroxy-10,13-dimethyl-4,5,6,7,8,9,10,11,12,13,14,15-dodecahydro-1H-cyclopenta[a]phenanthren-3(2H)-one]
IC50 [1, 4]: < 11 nM
inhibition at 0.001 µM [2, 5]: > 50%

SMILES: C[C@]12CCC(F)(F)CC1CCC1C2CC[C@]2(C)C(c3cccnc3)=CCC12 (stereo partly drawn) [Compound 404, 3-((10S,13S)-3,3-difluoro-10,13-dimethyl-2,3,4,5,6,7,8,9,10,11,12,13,14,15-tetradecahydro-1H-cyclopenta[a]phenanthren-17-yl)pyridine]
IC50 [1, 4]: < 11 nM

IC50 [1, 6]: > 25 nM
SMILES: C[C@]12CCC(F)(F)CC1CCC1C2CC[C@]2(C)C(c3cncc(F)c3)=CCC12 (stereo partly drawn) [Compound 405, 3-((10S,13S)-3,3-difluoro-10,13-dimethyl-2,3,4,5,6,7,8,9,10,11,12,13,14,15-tetradecahydro-1H-cyclopenta[a]phenanthren-17-yl)-5-fluoropyridine]

SMILES: C[C@]12CCC(F)(F)CC1CCC1C2CC[C@]2(C)C(n3ccnc3)=CCC12 (stereo partly drawn) [Compound 406, 1-((10S,13S)-3,3-difluoro-10,13-dimethyl-2,3,4,5,6,7,8,9,10,11,12,13,14,15-tetradecahydro-1H-cyclopenta[a]phenanthren-17-yl)-1H-imidazole]
IC50 [1, 6]: < 11 nM

SMILES: CC1CC2C3CC=C(c4cccnc4)[C@@]3(C)CCC2[C@@]2(C)CC[C@H](O)CC12O (stereo partly drawn) [Compound 410, (3S,10R,13S)-6,10,13-trimethyl-17-(pyridin-3-yl)-2,3,4,5,6,7,8,9,10,11,12,13,14,15-tetradecahydro-1H-cyclopenta[a]phenanthrene-3,5-diol]
IC50 [1, 4]: < 11 nM
inhibition at 0.001 µM [2, 5]: > 50%

IC50 [1, 6]: < 11 nM
inhibition at 0.001 µM [2, 7]: > 50%
SMILES: Cc1cncc(C2=CC=C3[C@@H]4CCC5CC(=O)NCC[C@]5(C)[C@H]4CC[C@]23C)c1 (stereo partly drawn) [Compound 460, (5aS,5bS,7aS,10bR)-5a,7a-dimethyl-8-(5-methylpyridin-3-yl)-3,4,5,5a,5b,6,7,7a,10b,11,12,12a-dodecahydrocyclopenta[5,6]naphtho[1,2-d]azepin-2(1H)-one]
